Assay results: the supplement of paper PMC10307832

Columns and labels:
Assay in all cases: relative viability (nuclei count vs DMSO), 5 days (fraction); higher = more cells survive
Cabozantinib = compound: COc1cc2nccc(Oc3ccc(NC(=O)C4(C(=O)Nc5ccc(F)cc5)CC4)cc3)c2cc1OC [Cabozantinib]
Outline: (§1)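 On vehicle-anchored 1536-well plates, lung cancer cell lines held overnight at 37 °C were pinned with five library-drug doses (not always all listed) spaced by √10. With no medium change over 5 days, they were then fixed, permeabilised and Hoechst-stained in one step and imaged at 4×. MetaXpress counted nuclei, and viability is the median across plates of treated-well over vehicle-well nuclei. Acceptance needed control CV below 25% and at least one doubling.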

Kobe2602 = compound: C1=CC(=CC=C1NC(=S)NNC2=C(C=C(C=C2[N+](=O)[O-])C(F)(F)F)[N+](=O)[O-])F [Kobe2602]
Outline: as §1

Zosuquidar = compound: O[C@@H](COc1cccc2ncccc12)CN1CCN([C@@H]2c3ccccc3[C@@H]3[C@H](c4ccccc42)C3(F)F)CC1 [Zosuquidar]
Outline: as §1

Kobe2602 + Foretinib = compound: C1=CC(=CC=C1NC(=S)NNC2=C(C=C(C=C2[N+](=O)[O-])C(F)(F)F)[N+](=O)[O-])F [Kobe2602] + COc1cc2c(Oc3ccc(NC(=O)C4(C(=O)Nc5ccc(F)cc5)CC4)cc3F)ccnc2cc1OCCCN1CCOCC1 [Foretinib] (partner 0.25 µM)
Outline: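 Each reported value is a median over duplicate plates. It expresses relative viability: treated-well nuclei count divided by vehicle-well nuclei count. Lung cancer cell lines in 1536-well plates were dosed by pin tool a day after seeding, alone with one drug or with a fixed anchor-drug dose plus five library-drug doses (not always all listed) in √10 steps, and nuclei were counted after 5 days.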

| Cell Line | relative viability (Cabozantinib; 0.06325 µM) | relative viability (Cabozantinib; 0.2 µM) | relative viability (Cabozantinib; 0.6325 µM) | relative viability (Cabozantinib; 2 µM) | relative viability (Kobe2602; 0.2 µM) | relative viability (Kobe2602; 0.6325 µM) | relative viability (Kobe2602; 2 µM) | relative viability (Kobe2602; 6.325 µM) | relative viability (Kobe2602; 20 µM) | relative viability (Zosuquidar; 0.01 µM) | relative viability (Zosuquidar; 0.03162 µM) | relative viability (Zosuquidar; 0.3162 µM) | relative viability (Zosuquidar; 1 µM) | relative viability (Kobe2602 + Foretinib; first compound 0.2 µM) | relative viability (Kobe2602 + Foretinib; first compound 0.6325 µM) | relative viability (Kobe2602 + Foretinib; first compound 2 µM) | relative viability (Kobe2602 + Foretinib; first compound 6.325 µM) | relative viability (Kobe2602 + Foretinib; first compound 20 µM) | relative viability (Cabozantinib; 0.02 µM) | relative viability (Zosuquidar; 0.1 µM) |
| --- | --- | --- | --- | --- | --- | --- | --- | --- | --- | --- | --- | --- | --- | --- | --- | --- | --- | --- | --- | --- |
| HCC-78 | 0.958 | 0.471 | 0.37 | 0.447 | 0.984 | 0.975 | 0.968 | 0.918 | 1.15 | 1.07 | 1 | 0.997 | 0.897 | 0.628 | 0.541 | 0.669 | 0.575 | 0.577 |  |  |
| NCI-H322M | 1.17 | 0.694 | 0.983 | 0.952 | 0.97 | 1.07 | 1.03 | 0.984 | 1.08 | 0.907 | 1.07 | 0.924 | 0.916 | 0.971 | 0.98 | 0.923 | 0.959 | 0.963 | 0.874 | 0.667 |
| HOP-62 | 1.1 | 1.16 | 1.08 | 1.09 | 0.983 | 1.07 | 0.952 | 1.04 | 1.01 | 1.03 | 1.05 | 1.05 | 0.975 | 1.08 | 1.16 | 1.18 | 1.1 | 1.08 | 1.1 | 1.02 |
| NCI-H838 | 1 | 0.966 | 0.891 | 0.854 | 0.932 | 1.03 | 0.937 | 0.955 | 0.96 | 0.972 | 0.836 | 1.04 | 1.01 | 0.934 | 1.13 | 0.93 | 0.971 | 1.03 | 0.93 | 0.9 |
| LK-2 | 1.26 | 0.924 | 0.927 | 0.926 | 1.14 | 1.12 | 0.974 | 0.887 | 1.19 | 0.997 | 1.03 | 1.11 | 1.01 | 1.48 | 1.74 | 1.28 | 1.14 | 1.41 | 0.764 | 0.934 |
| BEN | 1.11 | 1 | 0.95 | 0.808 | 1.14 | 1.02 | 0.925 | 0.981 | 1.01 | 0.994 | 0.876 | 0.938 | 0.977 | 0.591 | 0.706 | 0.738 | 0.58 | 0.768 | 0.918 | 0.801 |
| NCI-H23 | 1.33 | 0.99 | 0.925 | 0.874 | 0.97 | 1.26 | 0.944 | 1.12 | 1.1 | 0.99 | 0.992 | 1.18 | 0.976 | 1.02 | 0.977 | 0.896 | 1.12 | 1 |  | 0.873 |
| ChaGo-K-1 | 1.05 | 1 | 0.909 | 1.01 | 1.09 | 1.04 | 0.946 | 0.979 | 0.972 | 1.02 | 0.998 | 1.02 | 0.999 | 0.971 | 1.03 | 0.865 | 0.954 | 0.838 | 1.06 | 0.978 |
| NCI-H1944 | 1.01 | 0.961 | 1.01 | 0.916 | 1 | 1.07 | 0.899 | 0.992 | 0.987 | 0.942 | 0.88 | 1.08 | 0.909 | 0.891 | 0.91 | 0.847 | 0.885 | 0.976 | 0.826 | 0.847 |
| NCI-H2085 | 1.09 | 0.942 | 1.05 | 1.01 | 1.02 | 0.994 | 0.959 | 0.991 | 0.96 | 0.977 | 0.955 | 1 | 0.959 | 0.909 | 1.01 |  | 1.12 | 0.879 | 1.07 | 0.797 |
| LC-2-ad | 1.13 | 0.946 | 0.878 | 0.704 | 0.999 | 1.02 | 0.954 | 0.951 | 1.08 | 0.919 | 1.07 | 1.13 | 0.995 | 0.94 | 0.946 | 0.932 | 1.03 | 0.996 | 0.838 | 0.923 |
| NCI-H1703 | 0.662 | 0.325 | 0.262 | 0.233 | 0.831 | 1.08 | 0.83 | 0.898 | 0.727 | 1.07 | 1.14 | 1.12 | 1.01 | 0.404 | 0.349 | 0.4 | 0.321 | 0.329 | 0.57 | 0.993 |
| EBC-1 | 0.901 | 0.227 | 0.174 | 0.165 | 0.956 | 1.05 | 0.957 | 0.93 | 0.984 | 1.05 | 1.01 | 1.11 | 0.929 | 0.116 | 0.108 | 0.113 | 0.0943 | 0.111 | 1.04 | 0.956 |
| 201T | 1.1 | 0.967 | 1 | 0.965 | 1 | 1.01 | 0.946 | 0.997 | 0.963 | 0.947 | 0.979 | 0.985 | 0.982 | 1.16 | 1.17 | 1.04 | 0.946 | 0.93 | 0.868 | 0.883 |
| NCI-H2023 | 0.998 | 0.803 | 0.78 | 0.593 | 0.941 | 1.02 | 0.984 | 0.924 | 0.663 | 0.949 | 1.03 | 1.1 | 1.05 | 0.931 | 0.803 | 0.825 | 0.931 | 0.933 | 0.93 | 0.894 |
| NCI-H1793 | 0.992 | 0.59 | 0.832 | 0.776 | 0.862 | 0.889 | 0.853 | 0.86 | 1.04 | 0.902 | 0.754 | 1.15 | 0.892 | 0.847 | 0.803 | 0.684 | 0.728 | 0.863 | 0.846 |  |
